In ChEMBL document CHEMBL1137403, “Discovery of 2-[4-{{2-(2S,5R)-2-cyano-5-ethynyl-1-pyrrolidinyl]-2-oxoethyl]amino]- 4-methyl-1-piperidinyl]-4-pyridinecarboxylic acid (ABT-279): a very potent, selective, effective, and well-tolerated inhibitor of dipeptidyl peptidase-IV, useful for the treatment of diabetes” (J Med Chem, 2006):

Assays:
Dipeptidyl peptidase 2 = Dipeptidyl peptidase 2 (Homo sapiens, UniProt Q9UHL4); experiment: Inhibition of DPP7
Prolyl endopeptidase FAP = target: T1, Prolyl endopeptidase FAP (Homo sapiens, UniProt Q12884); experiment: Inhibition of FAPalpha
T1 sequence (Q12884 whole entry): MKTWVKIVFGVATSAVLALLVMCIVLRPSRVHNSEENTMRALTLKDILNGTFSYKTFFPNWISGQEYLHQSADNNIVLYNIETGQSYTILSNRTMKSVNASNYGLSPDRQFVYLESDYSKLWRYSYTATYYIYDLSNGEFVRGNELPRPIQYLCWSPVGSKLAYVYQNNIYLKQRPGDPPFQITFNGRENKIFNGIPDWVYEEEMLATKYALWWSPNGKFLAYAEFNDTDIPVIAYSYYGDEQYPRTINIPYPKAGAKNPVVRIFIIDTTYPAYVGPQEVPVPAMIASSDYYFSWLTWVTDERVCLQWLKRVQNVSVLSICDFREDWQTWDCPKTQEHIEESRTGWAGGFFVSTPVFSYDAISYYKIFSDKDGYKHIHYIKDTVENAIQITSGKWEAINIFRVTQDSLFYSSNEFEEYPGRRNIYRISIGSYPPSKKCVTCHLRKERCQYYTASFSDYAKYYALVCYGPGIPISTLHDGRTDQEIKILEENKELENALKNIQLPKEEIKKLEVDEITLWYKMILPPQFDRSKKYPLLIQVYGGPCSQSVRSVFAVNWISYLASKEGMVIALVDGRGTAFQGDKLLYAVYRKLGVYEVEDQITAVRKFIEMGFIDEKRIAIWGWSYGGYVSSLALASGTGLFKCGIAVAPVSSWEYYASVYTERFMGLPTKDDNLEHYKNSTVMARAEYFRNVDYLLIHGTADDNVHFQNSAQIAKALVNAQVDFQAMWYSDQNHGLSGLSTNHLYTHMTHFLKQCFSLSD

Dipeptidyl peptidase 8 = Dipeptidyl peptidase 8 (Homo sapiens, UniProt Q6V1X1)
Dipeptidyl peptidase 8, sequence (Q6V1X1 whole entry): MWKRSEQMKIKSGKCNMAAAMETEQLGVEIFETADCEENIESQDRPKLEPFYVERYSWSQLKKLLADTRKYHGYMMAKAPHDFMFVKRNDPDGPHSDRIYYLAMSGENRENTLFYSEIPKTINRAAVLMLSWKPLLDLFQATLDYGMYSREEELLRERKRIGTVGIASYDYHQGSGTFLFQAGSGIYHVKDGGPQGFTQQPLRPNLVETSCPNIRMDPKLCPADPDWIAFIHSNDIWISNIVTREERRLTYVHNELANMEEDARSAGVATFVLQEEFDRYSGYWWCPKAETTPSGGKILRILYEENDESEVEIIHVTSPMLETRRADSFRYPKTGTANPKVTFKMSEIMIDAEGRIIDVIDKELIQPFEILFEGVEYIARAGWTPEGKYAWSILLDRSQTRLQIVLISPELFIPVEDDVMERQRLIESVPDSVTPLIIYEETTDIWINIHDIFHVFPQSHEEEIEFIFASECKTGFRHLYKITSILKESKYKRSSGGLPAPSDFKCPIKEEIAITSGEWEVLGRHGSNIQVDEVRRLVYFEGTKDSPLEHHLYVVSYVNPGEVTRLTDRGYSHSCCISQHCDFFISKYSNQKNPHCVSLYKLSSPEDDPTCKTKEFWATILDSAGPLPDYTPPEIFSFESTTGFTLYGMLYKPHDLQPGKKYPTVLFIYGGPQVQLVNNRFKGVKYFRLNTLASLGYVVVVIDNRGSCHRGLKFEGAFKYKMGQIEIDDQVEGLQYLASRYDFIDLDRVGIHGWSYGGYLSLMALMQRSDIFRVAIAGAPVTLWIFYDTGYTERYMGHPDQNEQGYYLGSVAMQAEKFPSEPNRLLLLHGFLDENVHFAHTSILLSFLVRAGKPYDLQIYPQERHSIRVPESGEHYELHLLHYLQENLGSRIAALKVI

Prolyl endopeptidase = target: T2, Prolyl endopeptidase (Homo sapiens, UniProt P48147); experiment: Inhibition of POP
T2 sequence (P48147 whole entry): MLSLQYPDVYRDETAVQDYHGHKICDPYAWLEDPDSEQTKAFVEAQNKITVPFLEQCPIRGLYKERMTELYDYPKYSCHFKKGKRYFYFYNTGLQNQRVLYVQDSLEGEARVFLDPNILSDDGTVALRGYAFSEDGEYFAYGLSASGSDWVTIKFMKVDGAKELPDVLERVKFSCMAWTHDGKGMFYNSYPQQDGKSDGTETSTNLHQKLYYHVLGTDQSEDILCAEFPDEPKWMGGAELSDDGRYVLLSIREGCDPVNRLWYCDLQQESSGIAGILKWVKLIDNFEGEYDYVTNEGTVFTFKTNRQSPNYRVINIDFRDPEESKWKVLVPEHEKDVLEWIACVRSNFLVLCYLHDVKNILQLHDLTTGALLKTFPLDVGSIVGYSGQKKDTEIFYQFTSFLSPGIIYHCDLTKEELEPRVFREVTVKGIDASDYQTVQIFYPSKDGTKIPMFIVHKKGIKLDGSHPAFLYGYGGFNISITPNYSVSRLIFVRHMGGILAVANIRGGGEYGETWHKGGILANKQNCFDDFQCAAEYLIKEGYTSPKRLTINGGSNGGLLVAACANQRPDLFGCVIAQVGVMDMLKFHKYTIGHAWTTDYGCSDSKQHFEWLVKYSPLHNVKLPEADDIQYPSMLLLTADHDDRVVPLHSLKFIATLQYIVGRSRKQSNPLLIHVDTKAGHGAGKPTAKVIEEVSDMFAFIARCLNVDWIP

Dipeptidyl peptidase 9 = Dipeptidyl peptidase 9 (Homo sapiens, UniProt Q86TI2)
Dipeptidyl peptidase 9, sequence (Q86TI2 whole entry): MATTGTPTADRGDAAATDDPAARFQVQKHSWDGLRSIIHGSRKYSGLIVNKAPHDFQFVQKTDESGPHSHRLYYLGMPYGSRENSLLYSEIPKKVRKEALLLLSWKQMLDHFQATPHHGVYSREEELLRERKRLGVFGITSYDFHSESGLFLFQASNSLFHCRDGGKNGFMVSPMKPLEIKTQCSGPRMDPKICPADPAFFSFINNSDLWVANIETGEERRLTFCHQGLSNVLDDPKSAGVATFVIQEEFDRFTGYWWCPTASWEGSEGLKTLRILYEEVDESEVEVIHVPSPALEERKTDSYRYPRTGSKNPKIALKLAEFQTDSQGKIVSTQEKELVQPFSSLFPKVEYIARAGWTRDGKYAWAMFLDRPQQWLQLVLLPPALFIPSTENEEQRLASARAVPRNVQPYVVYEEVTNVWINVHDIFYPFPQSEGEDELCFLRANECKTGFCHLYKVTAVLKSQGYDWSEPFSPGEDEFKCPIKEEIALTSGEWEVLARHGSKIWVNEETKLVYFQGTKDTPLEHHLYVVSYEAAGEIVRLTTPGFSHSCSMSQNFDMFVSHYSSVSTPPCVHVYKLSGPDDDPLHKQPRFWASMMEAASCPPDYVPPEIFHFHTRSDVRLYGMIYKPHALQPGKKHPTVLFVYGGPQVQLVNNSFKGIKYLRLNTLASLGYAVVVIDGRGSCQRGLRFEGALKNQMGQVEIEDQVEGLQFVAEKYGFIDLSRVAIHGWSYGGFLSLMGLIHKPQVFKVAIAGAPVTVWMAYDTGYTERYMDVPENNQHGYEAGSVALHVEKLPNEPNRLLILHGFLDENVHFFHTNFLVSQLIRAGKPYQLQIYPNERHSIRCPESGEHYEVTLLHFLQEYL

Measured: Ki

C#C[C@H]1CC[C@@H](C#N)N1C(=O)CNC1(C)CCN(c2ccc(C#N)cn2)CC1
> 30 µM: all assays above
